Data from paper PMC8132994, “NanoFAST: structure-based design of a small fluorogen-activating protein with only 98 amino acids” (Chemical Science, 2021).

Biological target: T1, FAST (Halorhodospira halophila, UniProt P16113, C69G/Y94W/T95M/F96I/D97P/Y98T/Q99S/M100R/T101G)
T1 construct: gene pyp; C-terminal His6 tag in NMR structure
T1 sequence (P16113 1-125 C69G/Y94W/T95M/F96I/D97P/Y98T/Q99S/M100R/T101G): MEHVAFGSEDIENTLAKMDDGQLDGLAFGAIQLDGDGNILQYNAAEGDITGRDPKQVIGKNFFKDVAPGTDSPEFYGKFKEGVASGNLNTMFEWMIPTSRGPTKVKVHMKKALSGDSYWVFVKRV
Assay: solution NMR structure of the complex
Type: binding
Details: pH 7.0, 25 °C (1H NMR spectra); 13C/15N-labelled protein

COc1cc(O)ccc1/C=C1N=C(/C=C/c2ccncc2)N(C)C\1=O [N871b]
solution NMR structure of the complex: solved the spatial structure of the protein in complex with a promising ligand N871b
